As usually defined, the EC50 is the midpoint of the concentration-response curve.

In this assay the target is Intestinal-type alkaline phosphatase (Homo sapiens, UniProt P09923). In words: human intestinal alkaline phosphatase activators, dose response, biochemical, luminescence, uHTS hits (AID 463120).
Intestinal-type alkaline phosphatase, sequence (P09923 whole entry): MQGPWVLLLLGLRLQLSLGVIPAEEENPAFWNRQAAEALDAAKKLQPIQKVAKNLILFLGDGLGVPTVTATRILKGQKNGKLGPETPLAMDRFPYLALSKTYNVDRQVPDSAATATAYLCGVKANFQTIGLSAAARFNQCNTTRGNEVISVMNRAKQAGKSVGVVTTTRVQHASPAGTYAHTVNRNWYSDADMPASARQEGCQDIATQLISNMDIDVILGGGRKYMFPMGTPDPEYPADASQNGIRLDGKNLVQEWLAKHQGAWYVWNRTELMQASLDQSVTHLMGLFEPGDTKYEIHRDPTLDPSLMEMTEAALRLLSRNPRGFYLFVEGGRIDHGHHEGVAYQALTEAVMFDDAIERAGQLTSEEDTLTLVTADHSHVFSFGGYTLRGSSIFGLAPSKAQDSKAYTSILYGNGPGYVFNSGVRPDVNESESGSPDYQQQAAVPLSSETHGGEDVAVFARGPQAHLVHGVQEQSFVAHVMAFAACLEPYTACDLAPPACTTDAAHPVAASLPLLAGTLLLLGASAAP
Compound `COc1cccc(CN=Nc2nn3cnnc3c3ccccc23)c1O` yielded an EC50 of over 100 µM.

For the compound `Cc1c(C(=O)NN=Cc2ccc(O)cc2O)[nH][nH]c1=O`, the response was half-maximal at 8.3 µM (EC50). Under `Cc1cc(Br)ccc1SCC(=O)OCC(=O)C(C#N)c1nc2ccccc2[nH]1` (stereo not drawn) [2-[(4-bromo-2-methylphenyl)thio]acetic acid [3-cyano-3-(1,3-dihydrobenzimidazol-2-ylidene)-2-oxopropyl] ester] stands 13.4 µM; under `COc1ccc(Cc2cc(O)n(-c3ccc(C)cc3)c2O)cc1` [3-(4-Methoxy-benzyl)-1-p-tolyl-pyrrolidine-2,5-dione], over 100 µM; under `C=c1[nH]n(-c2nc3ccccc3[nH]2)c(=O)c1=CN(C)C` [(4E)-2-(1H-benzimidazol-2-yl)-4-(dimethylaminomethylidene)-5-methyl-pyrazol-3-one], 12.3 µM. Under `CCc1ccc(CN=Nc2ncnc3nc[nH]c23)cc1` [MLS000419199] stands 6.62 µM; under `Cn1c(C(C#N)C(=O)c2ccc(Br)s2)nc2ccccc21` (stereo not drawn) [MLS001167394], 77 µM; under `Cc1ccc(O)c(N=CCC(=O)c2ccc(F)cc2)c1` [MLS001183581], over 100 µM. Under `COc1cccc(C=NNC(=O)c2[nH][nH]c(=O)c2C)c1O` [N'-[(E)-(5-methoxy-6-oxidanylidene-cyclohexa-2,4-dien-1-ylidene)methyl]-4-methyl-5-oxidanylidene-1,4-dihydropyrazole-3-carbohydrazide] stands 6.53 µM; under `O=c1c2ccccc2nc(N=NCc2c(O)ccc3ccccc23)n1O` [SMR000145705], 13.6 µM. `O=C(Nn1c(O)csc1=S)C(=O)Nn1c(O)csc1=S` [SMR000349781]: the EC50 came to 9.21 µM.

`O=Nc1[nH]c(=O)c(CC(=O)c2ccccc2)nc1NO` [SMR000539633] gave a concentration for a half-maximal effect (EC50) of 8.21 µM. Next, `CCOC(=O)c1c(C)[nH]c(C(=O)N/N=C/C2C=C([N+](=O)[O-])C=CC2=O)c1C` (stereo not drawn) [ethyl 2,4-dimethyl-5-[[[(E)-(3-nitro-6-oxocyclohexa-2,4-dien-1-ylidene)methyl]amino]carbamoyl]-1H-pyrrole-3-carboxylate]: 12.1 µM.

For the origin of these results see BindingDB's records for doi:10.7270/Q2ST7N9K (Burnham Center For Chemical Genomics, 2010).
